Experimental data published in patent publication US20080096861A1, “Chemical Compounds” (SMITHKLINE BEECHAM CORPORATION, priority 2004, published 2008).

test system: HIV-1 IIIB; assay: HOS HIV-1 infectivity assay; format: cell-based; details: Human immunodeficiency virus 1, IIIB; as determined by the infectivity assay; strain not stated in Table 2; read-out: Activity Level
Method: Compounds were profiled against two HIV-1 viruses, the M-tropic (CCR5 utilizing) Ba-L strain and the T-tropic (CXCR4 utilizing) IIIB strain. Both viruses were propagated in human peripheral blood lymphocytes. Compounds were tested for there ability to block infection of the HOS cell line (expressing hCXCR4/hCCR5/hCD4/pHIV-LTR-luciferase) by either HIV-1 Ba-L or HIV-1 IIIB. Compound cytotoxicity was also examined in the absence of virus addition.
HOS cells (expressing hCXCR4/hCCR5/hCD4/pHIV-LTR-luciferase) were harvested and diluted in Dulbeccos modified Eagles media supplemented with 2% FCS and non-essential amino acid to a concentration of 60,000 cells/ml. The cells were plated into 96-well plates (100 ul per well) and the plates were placed in a tissue culture incubator (37° C.; 5% CO2/95% air) for a period of 24 h.
Subsequently, 50 ul of the desired drug solution (4 times the final concentration) was added to each well and the plates were returned to the tissue culture incubator (37° C.; 5% CO2/95% air) for 1 h. Following this incubation 50 ul of diluted virus was added to each well (approximately 2 million RLU per well of virus). The plates were returned to the tissue culture incubator (37° C.; 5% CO2/95% air) and were incubated for a further 96 h.
Following this incubation the endpoint for the virally infected cultures was quantified following addition of Steady-Glo Luciferase assay system reagent (Promega, Madison, Wis.). Cell viability or non-infected cultures was measured using a CellTiter-Glo luminescent cell viability assay system (Promega, Madison, Wis.). All luminescent readouts are performed on a Topcount luminescence detector (Packard, Meridien, Conn.).

IC50 [nM] | SMILES
< 100 | CN(Cc1nc2ccccc2n1CCCN)C1CCCc2cccnc21 (stereo not drawn) [Example 15b, N-{[1-(3-Aminopropyl)-1H-benzimidazol-2-yl]methyl}-N-methyl-5,6,7,8-tetrahydro-8-quinolinamine]
100 to 500 | CN(C)Cc1cccc(Cn2c(CN(C)C3CCCc4cccnc43)nc3ccccc32)c1 (stereo not drawn) [Example 48, N-{[1-({3-[(Dimethylamino)methyl]phenyl}methyl)-1H-benzimidazol-2-yl]methyl}-N-methyl-5,6,7,8-tetrahydro-8-quinolinamine]
< 100 | CN(Cc1nc2ccccc2n1C[C@H]1CCCNC1)[C@H]1CCCc2cccnc21 [Example 39h, (8S)—N-Methyl-N-({1-[(3S)-3-piperidinylmethyl]-1H-benzimidazol-2-yl}methyl)-5,6,7,8-tetrahydro-8-quinolinamine]
< 100 | CN(C)CCN1CCC[C@H](Cn2c(CN(C)[C@H]3CCCc4cccnc43)nc3ccccc32)C1 [Example 105, (8S)—N-{[1-({(3S)-1-[2-(Dimethylamino)ethyl]-3-piperidinyl}methyl)-1H-benzimidazol-2-yl]methyl}-N-methyl-5,6,7,8-tetrahydro-8-quinolinamine]
100 to 500 | CC(C)CN(Cc1nc2ccccc2n1C[C@H]1CCCN(C(C)C)C1)[C@H]1CCCc2cccnc21 [Example 98, (8S)—N-[(1-{[(3S)-1-(1-Methylethyl)-3-piperidinyl]methyl}-1H-benzimidazol-2-yl)methyl]-N-(2-methylpropyl)-5,6,7,8-tetrahydro-8-quinolinamine]
< 100 | CN(Cc1nc2ccccc2n1C[C@H]1CCCN(Cc2ccncc2)C1)[C@H]1CCCc2cccnc21 [Example 42, (8S)—N-Methyl-N-[(1-{[(3S)-1-(4-pyridinylmethyl)-3-piperidinyl]methyl}-1H-benzimidazol-2-yl)methyl]-5,6,7,8-tetrahydro-8-quinolinamine]
< 100 | CN(Cc1nc2ccccc2n1C[C@H]1CCCN(/C(N)=N/C#N)C1)[C@H]1CCCc2cccnc21 [Example 91, (3R)—N-Cyano-3-{[2-({methyl[(8S)-5,6,7,8-tetrahydro-8-quinolinyl]amino}methyl)-1H-benzimidazol-1-yl]methyl}-1-piperidinecarboximidamide]
500 to 10000 | NCCCCn1c(CN(Cc2ccccc2)C2CCCc3cccnc32)nc2ccccc21 (stereo not drawn) [Example 55, N-{[1-(4-Aminobutyl)-1H-benzimidazol-2-yl]methyl}-N-(Phenylmethyl)-5,6,7,8-tetrahydro-8-quinolinamine]
< 100 | CC(C)N1CCC[C@H](Cn2c(CN(C)[C@@H]3CCCc4cccnc43)nc3ccccc32)C1 [Example 83, (8R)—N-methyl-N-[(1-{[(3S)-1-(1-methylethyl)-3-piperidinyl]methyl}-1H-benzimidazol-2-yl)methyl]-5,6,7,8-tetrahydro-8-quinolinamine]
500 to 10000 | CN(Cc1nc2ccccc2n1CCc1cn(C)cn1)C1CCCc2cccnc21 (stereo not drawn) [Example 72, N-Methyl-N-({1-[2-(1-methyl-1H-imidazol-4-yl)ethyl]-1H-benzimidazol-2-yl}methyl)-5,6,7,8-tetrahydro-8-quinolinamine]
< 100 | CN(Cc1nc2ccccc2n1C[C@H]1CCCN(Cc2ccccc2)C1)[C@H]1CCCc2cccnc21 [Example 43, (8S)—N-Methyl-N-[(1-{[(3S)-1-(phenylmethyl)-3-piperidinyl]methyl}-1H-benzimidazol-2-yl)methyl]-5,6,7,8-tetrahydro-8-quinolinamine]
< 100 | CN(Cc1nc2ccccc2n1C[C@H]1CCCN(Cc2ncc[nH]2)C1)[C@H]1CCCc2cccnc21 [Example 45, (8S)—N-[(1-{[(3S)-1-(1H-Imidazol-2-ylmethyl)-3-piperidinyl]methyl}-1H-benzimidazol-2-yl)methyl]-N-methyl-5,6,7,8-tetrahydro-8-quinolinamine]
100 to 500 | CN(Cc1nc2ccccc2n1[C@H]1CC[C@H](N(C)C)CC1)C1CCCc2cccnc21 (stereo partly drawn) [Example 35, N-({1-[trans-4-(Dimethylamino)cyclohexyl]-1H-benzimidazol-2-yl}methyl)-N-methyl-5,6,7,8-tetrahydro-8-quinolinamine]
100 to 500 | CN(Cc1nc2ccccc2n1CC(=O)NCc1ccccn1)C1CCCc2cccnc21 (stereo not drawn) [Example 33, 2-(2-{[Methyl(5,6,7,8-tetrahydro-8-quinolinyl)amino]methyl}-1H-benzimidazol-1-yl)-N-(2-pyridinylmethyl)acetamide]
100 to 500 | CN(Cc1nc2ccccc2n1CCc1cccnc1)C1CCCc2cccnc21 (stereo not drawn) [Example 36]
500 to 10000 | NCCCn1c(CN(CCc2ccccc2)C2CCCc3cccnc32)nc2ccccc21 (stereo not drawn) [Example 52, N-{[1-(3-Aminopropyl)-1H-benzimidazol-2-yl]methyl}-N-(2-phenylethyl)-5,6,7,8-tetrahydro-8-quinolinamine]
100 to 500 | CN(Cc1nc2ccccc2n1CCn1ccnc1)C1CCCc2cccnc21 (stereo not drawn) [Example 70, N-({1-[2-(1H-Imidazol-1-yl)ethyl]-1H-benzimidazol-2-yl}methyl)-N-methyl-5,6,7,8-tetrahydro-8-quinolinamine]
< 100 | CN1CCC[C@@H]1CN1CCC[C@H](Cn2c(CN(C)[C@H]3CCCc4cccnc43)nc3ccccc32)C1 [Example 108, (8S)—N-Methyl-N-([1-[((3S)-1-{[(2R)-1-methyl-2-pyrrolidinyl]methyl}-3-piperidinyl)methyl]-1H-benzimidazol-2-yl]methyl)-5,6,7,8-tetrahydro-8-quinolinamine]
< 100 | CN(Cc1nc2ccccc2n1CCCNC(=N)N)C1CCCc2cccnc21 (stereo not drawn) [Example 61, N-[3-(2-{[Methyl(5,6,7,8-tetrahydro-8-quinolinyl)amino]methyl}-1H-benzimidazol-1-yl)propyl]guanidine]
< 100 | CC(C)CN1CCC[C@H](Cn2c(CN(C)[C@H]3CCCc4cccnc43)nc3ccccc32)C1 [Example 44, (8S)—N-Methyl-N-[(1-{[(3S)-1-(2-methylpropyl)-3-piperidinyl]methyl}-1H-benzimidazol-2-yl)methyl]-5,6,7,8-tetrahydro-8-quinolinamine]
< 100 | CN1CCC[C@H]1CN1CCC[C@H](Cn2c(CN(C)[C@H]3CCCc4cccnc43)nc3ccccc32)C1 [Example 106, (8S)—N-Methyl-N-({1-[((3S)-1-{[(2S)-1-methyl-2-pyrrolidinyl]methyl}-3-Piperidinyl)methyl]-1H-benzimidazol-2-yl}methyl)-5,6,7,8-tetrahydro-8-quinolinamine]
< 100 | CN(Cc1nc2ccccc2n1C[C@H]1CCCN(Cc2cccnc2)C1)[C@H]1CCCc2cccnc21 [Example 41, (8S)—N-Methyl-N-[(1-{[(3S)-1-(3-pyridinylmethyl)-3-piperidinyl]methyl}-1H-benzimidazol-2-yl)methyl]-5,6,7,8-tetrahydro-8-quinolinamine]
100 to 500 | CN(Cc1nc2ccccc2n1CC(=O)NCCCN)C1CCCc2cccnc21 (stereo not drawn) [Example 30, N-(3-Aminopropyl)-2-(2-{[methyl(5,6,7,8-tetrahydro-8-quinolinyl)amino]methyl}-1H-benzimidazol-1-yl)acetamide]
100 to 500 | CN(Cc1nc2ccccc2n1C[C@H]1CCCN(C(=N)N)C1)[C@@H]1CCCc2cccnc21 [Example 88, (3R)-3-{[2-({Methyl[(8R)-5,6,7,8-tetrahydro-8-quinolinyl]amino}methyl)-1H-benzimidazol-1-yl]methyl}-1-piperidinecarboximidamide]
